# Test system: M. tuberculosis H37Ra
# Test: microbe, parasite or virus in culture
# Type: cell-based, Mycobacterium tuberculosis
# Settings: not given
row,Molecule,MIC against H37Ra
1,"6-bromo-N-(2,2-difluoroethyl)-4-((2-methoxy-5-(trifluoromethyl)pyridin-3-yl)methyl)-3,4-dihydro-2H-benzo[b][1,4]oxazine-8-carboxamide [B5]",> 25 µg/mL
2,"6-bromo-N-(2-fluoroethyl)-4-((2-methoxy-5-(trifluoromethyl)pyridin-3-yl)methyl)-3,4-dihydro-2H-benzo[2, 4]oxazine-8-carboxamide [B3]",1.56 µg/mL
3,"6-bromo-N-(2-fluoroethyl)−4-((3,5,6-trimethylpyrazin-2-yl)methyl)−3,4-dihydro-2H-benzo[2, 4]oxazine-8-carboxamide [B1]",6.25 µg/mL
4,"6-bromo-N-(2-hydroxyethyl)-4-((2-methoxy-5-(trifluoromethyl)pyridin-3-yl)methyl)-3,4-dihydro-2H-benzo[2, 4]oxazine-8-carboxamide [B4]",25 µg/mL
5,"COc1ncnc(Cn2ccc3c(C(=O)NCC(F)F)cc(Br)cc32)c1C [A4, 6-bromo-N-(2,2-difluoroethyl)-1-((6-methoxy-5-methylpyrimidin-4-yl)methyl)-1H-indole-4-carboxamide]",0.5
6,Cc1nc(C)c(CN2CCOc3c(C(=O)NCC(F)F)cc(Br)cc32)nc1C [B2],0.39

# Same assay, conditions: Mycobacterium tuberculosis, H37RA, read-out: MIC against H37Ra
row,Molecule,MIC [µg/mL]
1,COc1ccc(F)c(F)c1Cn1ccc2c(C(=O)NCCF)cc(Br)cc21 [A1],> 6.25
2,"COc1ccc(F)c(F)c1Cn1ccc2c(C(=O)NCC(F)F)cc(Br)cc21 [A2, 6-bromo-1-(2,3-difluoro-6-methoxybenzyl)-N-(2,2-difluoroethyl)-1H-indole-4-carboxamide]",> 6.25
3,"Cc1nc(C)c(Cn2ccc3c(C(=O)NCC(F)F)cc(Br)cc32)nc1C [A3, 6-bromo-N-(2,2-difluoroethyl)-1-((3,5,6-trimethylpyrazin-2-yl)methyl)-1H-indole-4-carboxamide]",> 6.25
4,"COc1ncnc(Cn2ccc3c(C(=O)NCC(F)F)cc(Br)cc32)c1C [A4, 6-bromo-N-(2,2-difluoroethyl)-1-((6-methoxy-5-methylpyrimidin-4-yl)methyl)-1H-indole-4-carboxamide]",0.5
5,"COc1ncc(C(F)(F)F)cc1Cn1ccc2c(C(=O)NCC(F)F)cc(Br)cc21 [A5, 6-bromo-N-(2,2-difluoroethyl)-1-((2-methoxy-5-(trifluoromethyl)pyridin-3-yl)methyl)-1H-indole-4-carboxamide]",> 6.25
6,COc1ccc(F)c(F)c1Cn1ccc2c(C(=O)NCCF)cc(C)cc21 [A6],> 6.25
7,"COc1ccc(F)c(F)c1Cn1ccc2c(C(=O)NCC(F)F)cc(C)cc21 [A7, 1-(2,3-difluoro-6-methoxybenzyl)-N-(2,2-difluoroethyl)-6-methyl-1H-indole-4-carboxamide]",> 6.25
8,"Cc1cc(C(=O)NCC(F)F)c2ccn(Cc3nc(C)c(C)nc3C)c2c1 [A8, N-(2,2-difluoroethyl)-6-methyl-1-((3,5,6-trimethylpyrazin-2-yl)methyl)-1H-indole-4-carboxamide]",> 6.25
9,"COc1ncnc(Cn2ccc3c(C(=O)NCC(F)F)cc(C)cc32)c1C [A9, N-(2,2-difluoroethyl)-1-((6-methoxy-5-methylpyrimidin-4-yl)methyl)-6-methyl-1H-indole-4-carboxamide]",0.18
10,"COc1ncc(C(F)(F)F)cc1Cn1ccc2c(C(=O)NCC(F)F)cc(C)cc21 [A10, N-(2,2-difluoroethyl)-1-((2-methoxy-5-(trifluoromethyl)pyridin-3-yl)methyl)-6-methyl-1H-indole-4-carboxamide]",> 6.25
11,Cc1nc(C)c(CN2CCOc3c(C(=O)NCC(F)F)cc(Br)cc32)nc1C [B2],0.39
12,"COc1ccc(F)c(F)c1CN1CCOc2c(C(=O)NCCF)cc(Br)cc21 [B6, 6-bromo-4-(2,3-difluoro-6-methoxybenzyl)-N-(2-fluoroethyl)-3,4-dihydro-2H-benzo[b][1,4]oxazine-8-carboxamide]",> 100
13,"COc1ccc(F)c(F)c1CN1CCOc2c(C(=O)NCC(F)F)cc(Br)cc21 [B7, 6-bromo-4-(2,3-difluoro-6-methoxybenzyl)-N-(2,2-difluoroethyl)-3,4-dihydro-2H-benzo[b][1,4]oxazine-8-carboxamide]",> 100
14,"COc1ccc(F)c(F)c1CN1CCOc2c(C(=O)NCCO)cc(Br)cc21 [B8, 6-bromo-4-(2,3-difluoro-6-methoxybenzyl)-N-(2-hydroxyethyl)-3,4-dihydro-2H-benzo[b][1,4]oxazine-8-carboxamide]",> 100
